US20240245675A1, “PROTEIN SECRETION INHIBITORS” (Gate Bioscience, Inc., priority 2021, published 2024)

What follows are compounds tested against PRP Construct (signal peptide + 10 amino acids of Prion protein fused to HaloTag-HiBit) (Homo sapiens, UniProt P61619) (assay: cell-based). Conditions: not given.
Sequence of PRP Construct (signal peptide + 10 amino acids of Prion protein fused to HaloTag-HiBit) (P61619 whole entry, looked up, the tested form may be a part): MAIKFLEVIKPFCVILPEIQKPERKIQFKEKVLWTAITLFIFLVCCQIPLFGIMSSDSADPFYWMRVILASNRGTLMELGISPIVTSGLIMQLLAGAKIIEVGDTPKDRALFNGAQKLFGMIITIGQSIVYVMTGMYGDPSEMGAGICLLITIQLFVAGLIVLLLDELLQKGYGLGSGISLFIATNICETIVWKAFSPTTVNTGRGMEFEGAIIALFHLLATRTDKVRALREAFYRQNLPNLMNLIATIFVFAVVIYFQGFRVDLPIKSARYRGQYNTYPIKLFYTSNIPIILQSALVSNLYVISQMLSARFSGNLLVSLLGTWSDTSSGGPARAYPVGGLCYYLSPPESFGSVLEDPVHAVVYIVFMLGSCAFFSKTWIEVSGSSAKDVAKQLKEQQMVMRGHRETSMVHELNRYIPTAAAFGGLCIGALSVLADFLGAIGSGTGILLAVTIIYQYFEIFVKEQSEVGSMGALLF

Row | Structure (SMILES) | IC50 [µM]
1 | O=C(Nc1nc([C@H]2CCCN2c2ccccc2)cs1)OCCc1ccncc1 [Compound 1, 2-(pyridin-4-yl)ethyl (R)-(4-(1-phenylpyrrolidin-2-yl)thiazol-2-yl)carbamate] | > 30
2 | O=C(CCOc1ccncc1)Nc1nc([C@H]2CCCN2c2ccccc2)cs1 [Compound 2, (R)—N-(4-(1-phenylpyrrolidin-2-yl)thiazol-2-yl)-3-(pyridin-4-yloxy)propanamide] | > 30
3 | C[C@@H](OCc1ccncc1)C(=O)Nc1nc([C@H]2CCCN2c2ccccc2)cs1 [Compound 4, (R)—N-(4-((R)-1-phenylpyrrolidin-2-yl)thiazol-2-yl)-2-(pyridin-4-ylmethoxy)propanamide] | 10 to 30
4 | C[C@H](OCc1ccncc1)C(=O)Nc1nc([C@H]2CCCN2c2ccccc2)cs1 [Compound 5, (S)—N-(4-((R)-1-phenylpyrrolidin-2-yl)thiazol-2-yl)-2-(pyridin-4-ylmethoxy)propanamide] | 5 to 10
5 | CN(CCc1ccncc1)C(=O)Nc1nc([C@H]2CCCN2c2ccccc2)cs1 [Compound 6, (R)-1-methyl-3-(4-(1-phenylpyrrolidin-2-yl)thiazol-2-yl)-1-(2-(pyridin-4-yl)ethyl)urea] | > 30
6 | CC(CNc1ccncc1)C(=O)Nc1nc([C@H]2CCCN2c2ccccc2)cs1 (stereo partly drawn) [Compound 7, 2-methyl-N-(4-((R)-1-phenylpyrrolidin-2-yl)thiazol-2-yl)-3-(pyridin-4-ylamino)propanamide] | 10 to 30
7 | c1ccc(N2CCC[C@@H]2c2csc(Nc3ncccc3OCc3ccncc3)n2)cc1 [Compound 8, (R)-4-(1-phenylpyrrolidin-2-yl)-N-(3-(pyridin-4-ylmethoxy)pyridin-2-yl)thiazol-2-amine] | < 5
8 | O=C(NCc1ccncc1)Nc1nc([C@H]2CCCN2c2ccccc2)cs1 [Compound 11, (R)-1-(4-(1-phenylpyrrolidin-2-yl)thiazol-2-yl)-3-(pyridin-4-ylmethyl)urea] | > 30
9 | O=C(c1ccccc1)c1ccc(Nc2nc([C@H]3CCCN3c3ccccc3)cs2)cc1 [Compound 13, (R)-phenyl(4-((4-(1-phenylpyrrolidin-2-yl)thiazol-2-yl)amino)phenyl)methanone] | > 30
10 | CC(C)OC(C)(C)c1csc(NC(=O)[C@@H](C)OCc2ccncc2)n1 [Compound 14, (R)—N-(4-(2-isopropoxypropan-2-yl)thiazol-2-yl)-2-(pyridin-4-ylmethoxy)propanamide] | > 30
11 | CC(C)OC(C)(C)c1csc(NC(=O)[C@H](C)OCc2ccncc2)n1 [Compound 15, (S)—N-(4-(2-isopropoxypropan-2-yl)thiazol-2-yl)-2-(pyridin-4-ylmethoxy)propanamide] | > 30
12 | CC(C)OC(C)(C)c1csc(NC(=O)NCc2ccncc2)n1 [Compound 17, 1-(4-(2-isopropoxypropan-2-yl)thiazol-2-yl)-3-(pyridin-4-ylmethyl)urea] | > 30
13 | CC(C)OC(C)(C)c1csc(NC(=O)Nc2ccccc2Oc2ccccc2)n1 [Compound 18, 1-(4-(2-isopropoxypropan-2-yl)thiazol-2-yl)-3-(2-phenoxyphenyl)urea] | > 30
14 | CC(C)OC(C)(C)c1csc(NC(=O)N(C)Cc2ccncc2)n1 [Compound 19, 3-(4-(2-isopropoxypropan-2-yl)thiazol-2-yl)-1-methyl-1-(pyridin-4-ylmethyl)urea] | > 30
15 | CC(C)OC(C)(C)c1csc(NC(=O)N(C)CCc2ccncc2)n1 [Compound 20, 3-(4-(2-isopropoxypropan-2-yl)thiazol-2-yl)-1-methyl-1-(2-(pyridin-4-yl)ethyl)urea] | > 30
16 | CC(C)OC(C)(C)c1csc(NC(=O)OCCc2ccncc2)n1 [Compound 21, 2-(pyridin-4-yl)ethyl (4-(2-isopropoxypropan-2-yl)thiazol-2-yl)carbamate] | > 30
17 | CC(C)OC(C)(C)c1csc(Nc2ccc(C(=O)c3ccccc3)cc2)n1 [Compound 22, (4-((4-(2-isopropoxypropan-2-yl)thiazol-2-yl)amino)phenyl)(phenyl)methanone] | > 30
18 | O=C(Nc1ccc(C(=O)c2ccccc2)cc1)Nc1nc([C@H]2CCCN2c2ccccc2)cs1 [Compound 23, (R)-1-(4-benzoylphenyl)-3-(4-(1-phenylpyrrolidin-2-yl)thiazol-2-yl)urea] | > 30
19 | CC(C)OC(C)(C)c1csc(Nc2nccc3ccn(Cc4ccncc4)c23)n1 [Compound 25, 4-(2-isopropoxypropan-2-yl)-N-(1-(pyridin-4-ylmethyl)-1H-pyrrolo[2,3-c]pyridin-7-yl)thiazol-2-amine] | 10 to 30
20 | O=C(Nc1nc(-c2ccccc2)ns1)c1cccn1Cc1ccncc1 [Compound 37] | 5 to 10
21 | CC(C)(C)c1csc(Nc2ncccc2CCc2ccncc2)n1 [Compound 39] | 10 to 30
22 | CC(C)(C)C1CNC(NC(=O)c2cccn2Cc2ccncc2)=N1 (centres unmarked) [Compound 43] | 5 to 10
23 | Cc1ccc(Nc2nc(C3CCCN3Cc3cnc[nH]3)cs2)nc1 (centres unmarked) [Compound 45] | > 30
24 | Cc1ccc(Nc2nc(C3CCCN3C)cs2)nc1 (centres unmarked) [Compound 46] | > 30
25 | CN1CCCC1c1csc(Nc2ncccn2)n1 (centres unmarked) [Compound 47] | > 30

The compounds below were run against PDCD1 Construct (signal peptide + 10 amino acids of Programmed Cell Death Receptor 1 fused to HaloTag-HiBit) (Homo sapiens, UniProt P61619) (assay: HiBit assay, secretion of SP-HaloTag-HiBit fusion protein, PDCD1 construct). Conditions: T-REx-293 cells, doxycycline-induced, Nano-Glo HiBiT Extracellular Detection.
Sequence of PDCD1 Construct (signal peptide + 10 amino acids of Programmed Cell Death Receptor 1 fused to HaloTag-HiBit) (P61619 whole entry, the tested form may be a part): as the sequence (P61619 whole entry, looked up, the tested form may be a part) above
Type: cell-based

Row | Structure (SMILES) | IC50 [µM]
26 | c1ccc(N2CCC[C@@H]2c2csc(Nc3ncccc3OCc3ccncc3)n2)cc1 [Compound 8, (R)-4-(1-phenylpyrrolidin-2-yl)-N-(3-(pyridin-4-ylmethoxy)pyridin-2-yl)thiazol-2-amine] | 5 to 10
27 | CC(C)OC(C)(C)c1csc(NC(=O)c2ccnn2CCc2ccncc2)n1 [Compound 24, N-(4-(2-isopropoxypropan-2-yl)thiazol-2-yl)-1-(2-(pyridin-4-yl)ethyl)-1H-pyrazole-5-carboxamide] | > 30
28 | CC(C)OC(C)(C)c1csc(Nc2nccc3ccn(Cc4ccncc4)c23)n1 [Compound 25, 4-(2-isopropoxypropan-2-yl)-N-(1-(pyridin-4-ylmethyl)-1H-pyrrolo[2,3-c]pyridin-7-yl)thiazol-2-amine] | 5 to 10
29 | O=C(Nc1nc(-c2ccccc2)ns1)c1cccn1Cc1ccncc1 [Compound 37] | < 5
30 | Cc1cccc(Nc2nc(-c3ccc(-c4cccnc4)cc3)cs2)n1 [Compound 38] | > 30
31 | CC(C)(C)C1CNC(NC(=O)c2cccn2Cc2ccncc2)=N1 (centres unmarked) [Compound 43] | < 5
32 | CC(C)OC(C)(C)c1csc(NC(=O)c2nccn2CCc2ccncc2)n1 [Compound 44] | > 30
33 | CN1CCN(c2nsc(NC(=O)c3cc(F)cn3Cc3ccncc3)n2)CC1 [Compound 48, 4-fluoro-N-(3-(4-methylpiperazin-1-yl)-1,2,4-thiadiazol-5-yl)-1-(pyridin-4-ylmethyl)-1H-pyrrole-2-carboxamide] | > 30
34 | O=C(Nc1nc(/C=C/c2ccccc2)ns1)c1cc(F)cn1Cc1ccncc1 [Compound 49, (E)-4-fluoro-1-(pyridin-4-ylmethyl)-N-(3-styryl-1,2,4-thiadiazol-5-yl)-1H-pyrrole-2-carboxamide] | < 5
35 | CC(C)(C)c1nsc(NC(=O)c2cccn2Cc2ccncc2)n1 [Compound 50] | < 5
